Columns and labels:
[1] = biological target: T1, system Xc^− (Homo sapiens, UniProt Q9UPY5); assay: Cystine-induced glutamate release assay; format: cell-based; parameters: endogenous in cells; host or cells: H4 cells; settings: H4 cells, sodium-free HEPES buffer, 50 μM L-Cystine, 2 hours, Amplex Red glutamate readout; read-out: pIC50 Cystine-induced glutamate release assay (converted)
T1 sequence (Q9UPY5 1-501): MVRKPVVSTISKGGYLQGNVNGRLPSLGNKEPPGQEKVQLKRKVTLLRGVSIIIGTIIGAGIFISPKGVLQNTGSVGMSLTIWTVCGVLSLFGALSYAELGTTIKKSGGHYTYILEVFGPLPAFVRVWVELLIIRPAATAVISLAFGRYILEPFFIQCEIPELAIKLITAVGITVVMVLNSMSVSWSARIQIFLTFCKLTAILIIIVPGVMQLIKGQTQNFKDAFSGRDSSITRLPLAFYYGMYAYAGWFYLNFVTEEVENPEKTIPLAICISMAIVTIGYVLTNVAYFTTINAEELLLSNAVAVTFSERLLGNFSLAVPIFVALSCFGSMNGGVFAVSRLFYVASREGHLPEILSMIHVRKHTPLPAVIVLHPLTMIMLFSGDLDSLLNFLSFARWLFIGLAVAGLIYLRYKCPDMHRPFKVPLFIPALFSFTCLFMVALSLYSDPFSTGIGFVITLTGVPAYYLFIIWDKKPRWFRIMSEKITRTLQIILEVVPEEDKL
T1 sequence (P08195 1-529 partner): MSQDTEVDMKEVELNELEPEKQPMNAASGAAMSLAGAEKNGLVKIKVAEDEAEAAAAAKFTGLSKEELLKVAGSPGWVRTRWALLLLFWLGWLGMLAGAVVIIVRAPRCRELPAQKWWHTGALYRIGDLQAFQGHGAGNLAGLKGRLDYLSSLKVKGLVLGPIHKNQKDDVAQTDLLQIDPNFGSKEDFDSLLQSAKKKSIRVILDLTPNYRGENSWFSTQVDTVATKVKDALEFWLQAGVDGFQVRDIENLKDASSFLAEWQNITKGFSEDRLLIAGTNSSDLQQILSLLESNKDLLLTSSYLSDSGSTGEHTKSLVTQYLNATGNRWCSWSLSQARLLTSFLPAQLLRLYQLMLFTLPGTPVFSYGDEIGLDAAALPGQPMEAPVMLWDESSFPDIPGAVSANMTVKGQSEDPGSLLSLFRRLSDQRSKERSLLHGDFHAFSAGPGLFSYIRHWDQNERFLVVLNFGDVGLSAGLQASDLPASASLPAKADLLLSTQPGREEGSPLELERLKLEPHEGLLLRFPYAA
Summary of the method: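 H4 cells in sodium-free HEPES buffer (pH 7.4), 2 days after plating; glutamate release induced with 50 μM L-cystine plus compound (1% DMSO), 2 h at 37 °C. Supernatant glutamate measured by Amplex Red fluorescence; IC50/pIC50 derived between 1% DMSO and 50 μM erastin controls.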

[2] = biological target: T1, system Xc^−; assay: [^14C]L-Cystine uptake assay; format: cell-based; parameters: endogenous in cells; host or cells: H4 cells; settings: H4 cells, sodium-free HEPES buffer, 0.5 μM L-[14C]Cystine and 4.5 μM L-Cystine, 1 hour at 37° C.; read-out: pIC50 [^14C] L-Cystine uptake assay (converted)
Summary of the method: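 H4 cells at 5×10^4 cells/well in sodium-free HEPES buffer were preincubated 15 min with compounds (1% DMSO). Uptake of 0.5 μM [14C]L-cystine plus 4.5 μM unlabelled L-cystine ran 1 hour at 37° C on scintillating plates. IC50 was set between 1% DMSO and 50 μM Erastin controls and expressed as pIC50.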

[3] = biological target: T1, system Xc^−; settings: background statement, no data given; cited from earlier work

Q: With `CC1C(=O)N(CC(=O)Nc2ccc(Cl)c(F)c2)c2cc(OCCO)nc(F)c2-c2cccnc21` (stereo not drawn) [#375, N-(4-chloro-3-fluoro-phenyl)-2-[3-fluoro-5-(2-hydroxyethoxy)-10-methyl-9-oxo-4,8,12-triazatricyclo[9.4.0.0^2,7]pentadeca-1(15),2,4,6,11,13-hexaen-8-yl]acetamide] as the compound, how does the IC50 [1] read?
A: < 15.8 nM

Q: What about the IC50 [2] of the same compound?
A: < 15.8 nM

Q: What does the source list for `CC1C(=O)N(CC(=O)Nc2ccc(Cl)c(F)c2)c2cc(F)nc(OCCO)c2-c2cccnc21` (stereo not drawn) [#376, N-(4-chloro-3-fluoro-phenyl)-2-[5-fluoro-3-(2-hydroxyethoxy)-10-methyl-9-oxo-4.8,12-triazatricyclo[9.4.0.0^2,7]pentadeca-1(15),2,4,6,11,13-hexaen-8-yl]acetamide]?
A: IC50 [1]: 15.8 to 39.8 nM; IC50 [2]: 39.8 to 100 nM

Q: For `CC1C(=O)N(CC(=O)Nc2ccc(C(F)F)cc2)c2cc(OC3CN(C)C3)nc(F)c2-c2cccnc21` (stereo not drawn) [#378, N-[4-(difluoromethyl)phenyl]-2-[3-fluoro-10-methyl-5-(1-methylazetidin-3-yl)oxy-9-oxo-4,8,12-triazatricyclo[9.4.0.0^2,7]pentadeca-1(15),2,4,6,11,13-hexaen-8-yl]acetamide], which IC50 [1] is on record?
A: 15.8 to 39.8 nM

Q: And the IC50 [2]?
A: 39.8 to 100 nM

Q: Which results are given for `Cc1cc2c(c(Cl)n1)-c1cccnc1C(O)C(=O)N2CC(=O)Nc1ccc(C(F)(F)F)cc1` (stereo not drawn) [#379, 2-(3-chloro-10-hydroxy-5-methyl-9-oxo-4,8,12-triazatricyclo[9.4.0.0^2,7]pentadeca-1(15),2(7),3,5,11,13-hexaen-8-yl)-N-[4-(trifluoromethyl)phenyl]acetamide]?
A: IC50 [1]: 15.8 to 39.8 nM; IC50 [2]: < 15.8 nM

Q: For `CC1C(=O)N(CC(=O)Nc2ccc(C(F)F)cc2)c2cc(C#N)cc(Cl)c2-c2ccnn21` (stereo not drawn) [#388, 2-(11-chloro-9-cyano-5-methyl-6-oxo-5H-pyrazolo[1,5-d][1,4]benzodiazepin-7-yl)-N-[4-(difluoromethyl)phenyl]acetamide], which IC50 [1] is on record?
A: 15.8 to 39.8 nM

Q: What about the IC50 [2] of the same compound?
A: 15.8 to 39.8 nM

Q: For `COc1nc(C)cc2c1-c1ccccc1CC(=O)N2CC(=O)Nc1ccc(C(F)(F)F)cc1` [#390, 2-(1-methoxy-3-methyl-6-oxo-7H-pyrido[4,3-d][3]benzazepin-5-yl)-N-[4-(trifluoromethyl)phenyl]acetamide], which IC50 [1] is on record?
A: 15.8 to 39.8 nM

Q: What about the IC50 [2] of the same compound?
A: 15.8 to 39.8 nM

Q: For `Cc1cc2c(c(F)n1)-c1cc(F)cnc1CC(=O)N2CC(=O)Nc1ccc(C(F)(F)F)cc1` [#391, 2-(3,14-difluoro-5-methyl-9-oxo-4,8,12-triazatricyclo[9.4.0.0^2,7]pentadeca-1(15),2(7),3,5,11,13-hexaen-8-yl)-N-[4-(trifluoromethyl)phenyl]acetamide], which IC50 [1] is on record?
A: 100 to 501 nM

Q: And the IC50 [2]?
A: 15.8 to 39.8 nM

Q: Which IC50 [1] does the source give for `Cc1cc2c(c(C#N)n1)-c1ncccc1CC(=O)N2CC(=O)Nc1ccc(C(F)(F)F)cc1` [#392, 2-(15-cyano-13-methyl-9-oxo-3,10,14-triazatricyclo[9.4.0.0^2,7]pentadeca-1(11),2,4,6,12,14-hexaen-10-yl)-N-[4-(trifluoromethyl)phenyl]acetamide] here?
A: 39.8 to 100 nM

Q: What about the IC50 [2] of the same compound?
A: 15.8 to 39.8 nM

Q: For `COc1ccc2c(c1)C(C)C(=O)N(CC(=O)Nc1ccc(C(F)(F)F)cc1)c1cc(C)nc(Cl)c1-2` (stereo not drawn) [#393, 2-(1-chloro-9-methoxy-3,7-dimethyl-6-oxo-7H-pyrido[3,4-a][3]benzazepin-5-yl)-N-[4-(trifluoromethyl)phenyl]acetamide], which IC50 [1] is on record?
A: 39.8 to 100 nM

Q: What about the IC50 [2] of the same compound?
A: 15.8 to 39.8 nM

Q: Which results are given for `CC1C(=O)N(CC(=O)Nc2ccc(C(F)F)cc2)c2cc(Cl)nc(Cl)c2-c2cccnc21` (stereo not drawn) [#395, 2-(3,5-dichloro-10-methyl-9-oxo-4,8,12-triazatricyclo[9.4.0.0^2,7]pentadeca-1(11),2(7),3,5,12,14-hexaen-8-yl)-N-[4-(difluoromethyl)phenyl]acetamide]?
A: IC50 [1]: 15.8 to 39.8 nM; IC50 [2]: 39.8 to 100 nM

Q: What does the source list for `COc1nc2c(cc1CO)N(CC(=O)Nc1ccc(Cl)c(F)c1)C(=O)C(C)c1ccccc1-2` (stereo not drawn) [#399, N-(4-chloro-3-fluoro-phenyl)-2-[3-(hydroxymethyl)-2-methoxy-7-methyl-6-oxo-7H-pyrido[3,2-d][3]benzazepin-5-yl]acetamide]?
A: IC50 [1]: 39.8 to 100 nM; IC50 [2]: 15.8 to 39.8 nM

Q: For `COc1ncc(F)c2c1-c1ccccc1C(C)C(=O)N2CC(=O)Nc1ccc(Cl)c(F)c1` (stereo not drawn) [#400, N-(4-chloro-3-fluoro-phenyl)-2-(4-fluoro-1-methoxy-7-methyl-6-oxo-7H-pyrido[4,3-d][3]benzazepin-5-yl)acetamide], which IC50 [1] is on record?
A: 39.8 to 100 nM

Q: What about the IC50 [2] of the same compound?
A: 100 to 501 nM

Q: What does the source list for `Cc1cc2c(c(F)n1)-c1ccccc1C(C)C(=O)N2CC(=O)Nc1ccc(Cl)c(F)c1` (stereo not drawn) [#402, N-(4-chloro-3-fluoro-phenyl)-2-(1-fluoro-3,7-dimethyl-6-oxo-7H-pyrido[3,4-a][3]benzazepin-5-yl)acetamide]?
A: IC50 [1]: < 15.8 nM; IC50 [2]: < 15.8 nM

Q: Which results are given for `Cc1cc2c(c(F)n1)-c1ccc(F)cc1C(C)C(=O)N2CC(=O)Nc1ccc(Cl)c(F)c1` (stereo not drawn) [#404, N-(4-chloro-3-fluoro-phenyl)-2-(1,9-difluoro-3,7-dimethyl-6-oxo-7H-pyrido[3,4-a][3]benzazepin-5-yl)acetamide]?
A: IC50 [1]: 15.8 to 39.8 nM; IC50 [2]: 39.8 to 100 nM

Q: Which results are given for `CC1C(=O)N(CC(=O)Nc2ccc(Cl)c(F)c2)c2ccnc(OC(F)F)c2-c2cccnc21` (stereo not drawn) [#412, N-(4-chloro-3-fluoro-phenyl)-2-[3-(difluoromethoxy)-10-methyl-9-oxo-4,8,12-triazatricyclo[9.4.0.0^2,7]pentadeca-1(15),2,4,6,11,13-hexaen-8-yl]acetamide]?
A: IC50 [1]: 39.8 to 100 nM; IC50 [2]: 39.8 to 100 nM

Q: What does the source list for `Cc1cc2c(c(F)n1)-c1ncc(F)cc1CC(=O)N2CC(=O)Nc1ccc(Cl)c(F)c1` [#417, N-(4-chloro-3-fluoro-phenyl)-2-(5,15-difluoro-13-methyl-9-oxo-3,10,14-triazatricyclo[9.4.0.0^2,7]pentadeca-1(11),2,4,6,12,14-hexaen-10-yl)acetamide]?
A: IC50 [1]: 39.8 to 100 nM; IC50 [2]: 15.8 to 39.8 nM

Q: With `O=C(CN1C(=O)Cc2ncccc2-c2c1cc(N1CC3(C1)CC3(F)F)nc2F)Nc1ccc(C(F)F)cc1` [#421, 2-[5-(2,2-difluoro-5-azaspiro[2.3]hexan-5-yl)-3-fluoro-9-oxo-4,8,12-triazatricyclo[9.4.0.0^2,7]pentadeca-1(11),2(7),3,5,12,14-hexaen-8-yl]-N-[4-(difluoromethyl)phenyl]acetamide] as the compound, how does the IC50 [1] read?
A: 15.8 to 39.8 nM

Q: And the IC50 [2]?
A: 15.8 to 39.8 nM

Q: With `O=C(O)c1cc(/N=N/c2ccc(S(=O)(=O)Nc3ccccn3)cc2)ccc1O` [Sulfasalazine] as the compound, how does the “inhibition of the System Xc− antiporter” value [3] read?
A: non-selective inhibitor

Q: And the “potency on human System Xc− function” value [3]?
A: low

Reference: patent publication US20260217708A1, “FUSED BENZAZEPINE DERIVATIVES FOR USE IN THE TREATMENT OF CANCER AND EPILEPSY” (UCB BIOPHARMA SRL, priority 2023, published 2026)
